Measured values reported in patent US20070203091A1, “Methods and therapeutic compositions for improving liver, blood flow and skeletal muscle functions in advanced diseases and aging” (priority 2006, published 2007).

Experiments:
[1] = Tumor burden endpoints (PSA), Phase I study; type: in vivo, human
[2] = Cachexia markers Part II: blood TNF-alpha, Interleukin-6, Phase I study; type: in vivo, human
Text: TNF-alpha is an acknowledged independent negative prognostic factor of morbidity and mortality in the elderly (30).

[3] = Quality of life (EORTC QLQ-C30), appetite, energy and body weight, Phase I study; type: in vivo, human
Text: Nine qualified patients have been enrolled in the study as of Sep. 1, 2001; seven of which received the first 3 cycles of the study drug and are therefore evaluable for the primary endpoint. Two of the seven evaluable patients had advanced prostate cancer with bone metastases and one each had advanced mesothelioma, metastatic breast cancer, metastatic melanoma, metastatic colon cancer and renal cell carcinoma.
Three of these parameters are EORTC QLQ-C30 patient-oriented questionnaire, skeletal (voluntary) muscle strength and percent body fat. […] The screening value is used as the patients' baseline. In some patients a deterioration in overall quality of life between screening and week 1, prior to the administration of study drug has been observed. […] A more accurate baseline for evaluation of the efficacy of ATP treatment on cancer cachexia and quality of life parameters is therefore recommended.

[4] = cited from earlier work
[5] = cited from earlier work; remark: listed apart in the source
[6] = Voluntary (skeletal) muscle strength, hand grip strength, Phase I study; type: in vivo, human; settings: for Skeletal Muscle Strength, Change from Baseline, Mean / Skeletal Muscle Strength, Change from Baseline, Median / Skeletal Muscle Strength, Observed Values, Mean / Skeletal Muscle Strength, Observed Values, Median: ITT
Procedure: Procedure for measuring voluntary (skeletal) muscle strength-hand grip strength • 1. This measurement will be performed in the standing position (without support) using the patients' dominant hand in the horizontal outstretched position of 90 degrees to the body. • 2. Measurements will be taken using a calibrated and well maintained hand-held commercially available dynamometer. • 3. All measurements that are performed during the treatment period will be taken prior to placement of intravenous cannula and prior to study treatment administration • 4. Patients will undertake the hand-grip strength maneuver after initial training—with encouragement from the observer to “do their best”. This will be performed ×3 with no more than 30 seconds between attempts. • 5. The maximal value of the three attempts will be recorded as the hand-grip strength on that day. • 6. The testing will be performed and documented by the same individual member of the research team (as often as is practically possible). • The dynamometer instrument will be to the greatest extent possible the same instrument for any one patient throughout the study and will be initially calibrated and checked for accuracy prior to the study and thereafter on a regular basis. ATP Therapeutics, Inc.

[7] = Patient 504, while on ATP treatment
[8] = patients 502-505, week 13 follow-up
[9] = low levels of ATP administered directly into the duodenum
[10] = Week <1 (Screening), baseline, N=15

## Nc1ncnc2c1ncn2[C@@H]1O[C@H](COP(=O)(O)OP(=O)(O)OP(=O)(O)O)[C@@H](O)[C@H]1O [ATP, adenosine 5′-triphosphate]
[1]; Patient 503, PSA Pre 4000
  Tumor burden Endpoints: PSA Post: Post 3903
[1]; Patient 503, at the end of follow up
  PSA compared to baseline: unchanged
[1]; Patient 507, increased after stopping Rx
  Tumor burden Endpoints: PSA: PSA unchanged
[2]; upon ATP treatment
  Interleukin-6 levels: not stabilized
[2]; week 13
  levels of blood tumor necrosis factor-alpha (TNF-alpha): stabilize
[3]; Patient 502, during the treatment period
  patient's comment on energy / appetite: improved energy levels
[3]; Patient 503, during ATP therapy
  patient's comment on energy / appetite: improved energy and appetite
[3]; [7]
  patient's comment on energy / appetite: increased energy and appetite
  weight: increasing
[3]; Patient 505, while on study
  patient's comment on energy / appetite: improved energy and appetite
[3]; Patient 506
  patient's comment on energy / appetite: more energy and improved appetite
[3]; Patient 507, while on ATP Rx
  Other Endpoints (patient's comment on energy): Felt more energy
[3]; Patient 509
  patient's comment on energy / activity: subjective improvement in energy and activity
[3]; during the study, first nine patients
  subjective comments of several patients on appetite and energy: improved appetite and energy
[3]; patients 502-505, screening (week <1) to follow-up (week 10)
  Global Health Status of the QOL EORTC QLQ-C30: Increases
[3]; patients 502-505, screening to week 10 (follow-up)
  appetite loss: Decreases
[3]; patients 502-505, week 1 (pre-dose) to week 13 (follow-up)
  body weight: Stabilization
[3]; [8]
  Global Health Status of the QOL EORTC QLQ-C30: decline
  appetite loss: return to screening baseline
[4]; after the administration of ATP into the duodenum
  arterial oxygen pressure (PaO2): increase
[4]; [9]
  Pulmonary Vascular Resistance: reductions
  arterial blood pressure or heart rate: No effects
  blood flow: increases
  peripheral vascular resistance: reductions
[5]; blood plasma ATP about 1 microM
  increase in vascular diameter: 8%
[5]; blood plasma ATP about 1 microM, corresponding to the increase in vascular diameter
  increase in blood flow: ≥ 17%
[5]; intraluminal, physiological concentrations
  site of vasodilation: not only local vasodilation, but also vasodilation at sites upstream from the site of its application
[6]; Week 1 (Infusion 1), N=6
  Skeletal Muscle Strength, Change from Baseline, Mean: -1.7 kg
  Skeletal Muscle Strength, Change from Baseline, Median: -1.5 kg
  Skeletal Muscle Strength, Observed Values, Mean: 38.5 kg
  Skeletal Muscle Strength, Observed Values, Median: 35.0 kg
[6]; Week 2 (Infusion 2), N=14
  Skeletal Muscle Strength, Change from Baseline, Mean: -1.4 kg
  Skeletal Muscle Strength, Change from Baseline, Median: -2.0 kg
  Skeletal Muscle Strength, Observed Values, Mean: 34.6 kg
  Skeletal Muscle Strength, Observed Values, Median: 34.0 kg
[6]; Week 4 (Infusion 4), N=11
  Skeletal Muscle Strength, Change from Baseline, Mean: -4.1 kg
  Skeletal Muscle Strength, Change from Baseline, Median: -2.0 kg
  Skeletal Muscle Strength, Observed Values, Mean: 31.5 kg
  Skeletal Muscle Strength, Observed Values, Median: 32.0 kg
[6]; Week 8 (Infusion 8), N=7
  Skeletal Muscle Strength, Change from Baseline, Mean: -2.4 kg
  Skeletal Muscle Strength, Change from Baseline, Median: -2.0 kg
  Skeletal Muscle Strength, Observed Values, Mean: 30.0 kg
  Skeletal Muscle Strength, Observed Values, Median: 26.0 kg
[6]; Week 10 (Follow-up), N=6
  Skeletal Muscle Strength, Change from Baseline, Mean: 1.8 kg
  Skeletal Muscle Strength, Change from Baseline, Median: -3.0 kg
  Skeletal Muscle Strength, Observed Values, Mean: 33.7 kg
  Skeletal Muscle Strength, Observed Values, Median: 30.0 kg
[6]; Week 13 (follow-up), N=4
  Skeletal Muscle Strength, Change from Baseline, Mean: 6.3 kg
  Skeletal Muscle Strength, Change from Baseline, Median: -1.0 kg
  Skeletal Muscle Strength, Observed Values, Mean: 32.5 kg
  Skeletal Muscle Strength, Observed Values, Median: 26.0 kg
[6]; [10]
  Skeletal Muscle Strength, Change from Baseline, Mean: 0.0 kg
  Skeletal Muscle Strength, Change from Baseline, Median: 0.0 kg
  Skeletal Muscle Strength, Observed Values, Mean: 35.1 kg
  Skeletal Muscle Strength, Observed Values, Median: 35.0 kg
[6]; beginning at week 8 and up to week 13
  skeletal muscle strength: stabilize and improve
[6]; patients 502-505, screening (week <1) to week 8 (last infusion cycle)
  Skeletal Muscle Strength (voluntary): Small increase
